Data as given in patent US12134769B2, “MicroRNA-198 as a tumor suppressor in ovarian cancer” (Baylor College of Medicine, priority 2011, dated 2024).
Values joined by “and” are separate entries in the source; they are usually repeats but may differ in a detail not shown here. Equal values may be shown once.

What was measured:
AsPC1 cells [1] = assay: Stable miR-198 overexpression, expression of network factors; format: cell-based, human
Protocol: (§1) Western blots were performed as previously described (Li et al., 2008). Membranes were probed with: anti-MSLN monoclonal antibody (1:1000) (Abcam); PBX-1 polyclonal antibody (1:1000) and Caspase 3 antibody (1:1000) (Cell Signaling); OCT-2 polyclonal antibody (1:400), and VCP polyclonal antibody (1:200) (Santa Cruz Biotechnology); or anti-β-actin, Tubulin, LaminA or GAPDH antibodies (1:10,000) (Sigma Aldrich). Secondary incubation was performed with horseradish peroxidase-linked secondary antibody (1:2,000) (anti-mouse, anti-goat or anti-rabbit) (Cell Signaling).
(§2) MSLN-overexpressing stable cells (or empty vector controls) were selected in MIA PaCa-2 cells or HPDE cells (MIA-MSLN, HPDE-MSLN) or vector (MIA-V, HPDE-V) using retrovirus vectors expressing puromycin resistance (Origene) with 0.5 μg/mL of puromycin added into the medium as previously described (Zhang et al.). Stable cells overexpressing miR-198 or vector control were generated in AsPC-1 (AsPC-1-miR-198, AsPC-1-miR-Ctrl), MIA-MSLN (MIA-MSLN-miR-198, MIA-MSLN-miR-Ctrl), MIA-V (MIA-V-miR-198, MIA-V-miR-Ctrl), and HPDE cells (HPDE-miR-198, HPDE-miR-Ctrl) using the Lenti-miR miRNA Precursor Clone Collection (SBI). The miRZip Lentivector collection from SBI was used to stably knock down miR-198 in MIA-PaCa2 (MIA-V-Zip-198, MIA-V-Zip-Ctrl) and HPDE (HPDE-Zip-198, HPDE-Zip-Ctrl) cells.
(§3) Differential expression of 95 miRNAs chosen for their potential roles in cancer, cell development, and apoptosis was analyzed by RT-PCR using the QuantiMir System from SBI System Biosciences in both MIA-V and MIA-MSLN cells. The array plate also included the U6 transcript as a normalization signal. cDNAs from different cell lines and tissue samples were mixed with SYBR® Green Mastermix (Bio-Rad Laboratories) plus the universal reverse primer. Specific primers (1 μl) were added to each well of the qPCR plate. Expression levels of each mature miRNA were evaluated using comparative threshold cycle (Ct) method as normalized to that of U6 (2—ΔCt). The expression level of miR-198 was measured in all subsequent experiments using the same method. Real-time RT PCR was performed as previously described for MSLN, ZEB1, PBX-1, and VCP (Li et al., 2008).

MIA-MSLN cells [2] = assay: as above; format: cell-based, human; conditions: miR-198 overexpression in MIA-MSLN cells
Protocol: as §1, §2, §3

AsPC1 cells [3] = assay: Cell proliferation assay (MTT); format: cell-based, human; conditions: AsPC1-miR-198 cells
Protocol: (§4) Cells were seeded in 96-well plates (2×10^3 cells per well) and serum starved for 24 h prior to differential FBS additions. 3-(4,5-Dimethylthiazol-2-yl)-2,5-diphenyltetrazolium bromide (MTT) was used to measure cell proliferation as previously described (Bharadwaj et al., 2011b).
(§5) Cell growth was assessed using MTT at 2, 3, 4, 5 and 6 days after releasing from starvation (not all data shown). Briefly, twenty microliters of MTT reagent mixed with 100 μL of growth medium was added to each well and incubated at 37° C. for 2 h. Cells were then lysed overnight using 100 μl of lysis buffer consisting of 20% SDS in 1:1 dimethyl formamide; H2O solution. Absorbance was recorded at 520 nm with an EL-800 universal microplate reader (Bio-Tek Instruments). Relative proliferation was calculated by dividing the reading by a Day 0 reading taken prior to serum starvation.

MIA-MSLN cells [4] = assay: Cell proliferation assay (MTT); format: cell-based, human; conditions: MIA-MSLN-miR-198 cells, after 5 days
Protocol: as §4, §5

MIA-MSLN cells [5] = assay: Anchorage independent growth assay in soft agar; format: cell-based, human; conditions: MIA-MSLN-miR-198 vs MIA-MSLN, 15 days, ImageJ
Protocol: A soft agar assay for colony formation was performed by coating 35 mm dishes with a combination of 0.5% base agar and 0.7% top agar. Base agar preparation: 1% LMP Agarose (DNA grade) (Baylor College of Medicine) was melted in 1× incomplete DMEM, microwaved, and cooled to 40° C. in a water bath. Equal volumes of 20% FBS DMEM pre-warmed to 40° C. in water bath were mixed to give 0.5% Agar+10% DMEM, of which 1.5 ml/35 m Petri dish was added and allowed to set at room temperature.
Top agar preparation: 0.7% LMP Agarose (DNA grade) in 1×DMEM was prepared in the same manner as above. Cells were trypsinized and diluted to 0.1×10^6 cells/ml, in the 20% FBS DMEM; 5,000 cells/dish were plated in duplicate. The plates were then incubated at 37° C. in a humidified incubator for 15 days. Following incubation, the plates were stained with 0.5 ml of 1% MTT for 2 h, and colonies were photographed using a dissecting microscope. Images were analyzed using IMAGEJ software.

MIA-MSLN cells [6] = assay: Subcutaneous pancreatic cancer mouse model; format: in vivo, nude mice
Protocol: All animal procedures were conducted under the guidelines approved by the Institutional Animal Care and Use Committee (IACUC). Cells (3×10^6) were inoculated into the right flank (s.c. model) or into the pancreas (orthotopic model) of 5 to 6-week-old male nude mice (NCI-Charles River) as previously described (Li et al., 2007). Tumor size was measured using a digital caliper and tumor volume was determined with the following formula: tumor volume (mm^3)=[length (mm)]×[width (mm)]2×0.52. For the orthotopic model, after 4 weeks all surviving mice were euthanized and evaluated macroscopically for the presence of orthotopic tumor and metastases in the abdominal cavity. Tumor spread was further visualized using a fluorescent filter to view GFP expression. The tumor nodules were explanted, counted, and weighed. Tumor tissues were stored in RNAse Later solution (Ambion) in −80° for subsequent RNA/miRNA isolation and analysis.

Q: With “miR-198: microRNA-198, SEQ ID NO: 1 gguccagaggggagauagg; used as transfected precursors (Ambion) or Lenti-miR stable overexpression (GGUCCAGAGGGGAGAUAGG; listed as RNA, chemistry not given here; listed as Homo sapiens)” as the substance, how does the “VCP mRNA levels downregulated” value (AsPC1 cells [1]; ASPC1 cells following miR-198 overexpression, FIG. 10J) read?
A: ~5 fold

Q: What about the VCP expression downregulated (AsPC1 cells [1]; AsPC1 cells following miR-198 overexpression, FIG. 3E) of the same substance?
A: ~50 fold

Q: What about the “PBX-1 mRNA and protein expression” value (AsPC1 cells [1]; miR-198 overexpression in AsPC1 cells) of the same substance?
A: almost undetectable

Q: And the “MSLN expression at the protein level” value (MIA-MSLN cells [2])?
A: almost complete reduction of MSLN expression

Q: What about the “MSLN mRNA expression levels” value (MIA-MSLN cells [2]) of the same substance?
A: partial decrease

Q: What about the “PBX-1 mRNA and protein expression” value (MIA-MSLN cells [2]) of the same substance?
A: almost undetectable

Q: And the “VCP mRNA levels” value (MIA-MSLN cells [2]; FIG. 10I)?
A: reduces VCP down to MIA-V cell levels

Q: What about the “proliferation rates vs AsPC1-miR-Ctrl cells” value (AsPC1 cells [3]) of the same substance?
A: significantly lower proliferation rates

Q: What about the “lower proliferation rates than MIA-MSLN and MIA-MSLN-miR-Ctrl cells” value (MIA-MSLN cells [4]) of the same substance?
A: approximately 3 fold

Q: And the “reduction in mean threshold intensity of soft agar colonies” value (MIA-MSLN cells [5])?
A: ~20 fold

Q: What about the “mice that developed tumors” value (MIA-MSLN cells [6]; s.c. MIA-MSLN-miR-198 cells) of the same substance?
A: 3 of 9

Q: And the average tumor volume (MIA-MSLN cells [6]; s.c. MIA-MSLN-miR-198 cells, day 45 post injection, the three mice with tumors)?
A: 37 mm^3 and 36 mm^3

Q: And the “mice with no signs of tumor development” value (MIA-MSLN cells [6]; s.c. miR-198 overexpressing cells, tumor-free for 45 days)?
A: 6/9

Q: And the first measurable tumors (MIA-MSLN cells [6]; s.c., the three mice that presented small tumors)?
A: 35 day post injection
